US5614520A, “2-arylthiazole derivatives and pharmaceutical composition thereof” (priority 1990, dated 1997)

Experiments:
xanthine oxidase = biological target: T1, xanthine oxidase (Bos taurus, UniProt P80457); assay: In vitro determination of xanthine oxidase (XOD) inhibition; assay type: biochemical; details: xanthine oxidase from butter milk, xanthine substrate, pH 7.4, 37° C.
T1 construct: purchased Sigma Chemical Company; host or cells: butter milk
Procedure: (1) Preparation of test compounds:
Test compounds (compounds of Ex. No. listed in Table 1) were dissolved in dimethylsulfoxide and diluted with a 50 mM phosphate buffer to prepare aqueous solutions respectively having predetermined concentrations.
The inhibition rate was determined by the following equation: [formula]
The inhibition (%) was determined on each test compound prepared according to (1), and the IC50 value on the xanthine oxidase (XOD) inhibition was calculated from the value of inhibition.

serum uric acid = assay: Determination of oral administration: lowering of serum uric acid in mice; assay type: in vivo, ICR male mice; details: Mus musculus; ICR male mice, oral, 1 mg/kg, 2 hours after administration, serum; read-out: Activity of lowering uric acid
Procedure: Test compounds suspended in a 5% gum arabic solution was forcibly administered by oral administration (compounds of Ex. No. of Table 2, dose: 1 mg/kg) to ICR male mice (age: about 7 weeks) (one group: 6 mice) by means of an oral probe. 2 hours after the administration, thoracotomy was conducted under etherization to collect blood from the heart, and serum was removed by a conventional process. The serum uric acid was measured by a biochemical automatic analyzer (Flexigem; Electro-Nucleonics, Inc.) by using a uric acid measurement kit (UA reagent; International Reagent) to determine the percentage of the lowering of uric acid. [formula]

T1 sequence (P80457 whole entry): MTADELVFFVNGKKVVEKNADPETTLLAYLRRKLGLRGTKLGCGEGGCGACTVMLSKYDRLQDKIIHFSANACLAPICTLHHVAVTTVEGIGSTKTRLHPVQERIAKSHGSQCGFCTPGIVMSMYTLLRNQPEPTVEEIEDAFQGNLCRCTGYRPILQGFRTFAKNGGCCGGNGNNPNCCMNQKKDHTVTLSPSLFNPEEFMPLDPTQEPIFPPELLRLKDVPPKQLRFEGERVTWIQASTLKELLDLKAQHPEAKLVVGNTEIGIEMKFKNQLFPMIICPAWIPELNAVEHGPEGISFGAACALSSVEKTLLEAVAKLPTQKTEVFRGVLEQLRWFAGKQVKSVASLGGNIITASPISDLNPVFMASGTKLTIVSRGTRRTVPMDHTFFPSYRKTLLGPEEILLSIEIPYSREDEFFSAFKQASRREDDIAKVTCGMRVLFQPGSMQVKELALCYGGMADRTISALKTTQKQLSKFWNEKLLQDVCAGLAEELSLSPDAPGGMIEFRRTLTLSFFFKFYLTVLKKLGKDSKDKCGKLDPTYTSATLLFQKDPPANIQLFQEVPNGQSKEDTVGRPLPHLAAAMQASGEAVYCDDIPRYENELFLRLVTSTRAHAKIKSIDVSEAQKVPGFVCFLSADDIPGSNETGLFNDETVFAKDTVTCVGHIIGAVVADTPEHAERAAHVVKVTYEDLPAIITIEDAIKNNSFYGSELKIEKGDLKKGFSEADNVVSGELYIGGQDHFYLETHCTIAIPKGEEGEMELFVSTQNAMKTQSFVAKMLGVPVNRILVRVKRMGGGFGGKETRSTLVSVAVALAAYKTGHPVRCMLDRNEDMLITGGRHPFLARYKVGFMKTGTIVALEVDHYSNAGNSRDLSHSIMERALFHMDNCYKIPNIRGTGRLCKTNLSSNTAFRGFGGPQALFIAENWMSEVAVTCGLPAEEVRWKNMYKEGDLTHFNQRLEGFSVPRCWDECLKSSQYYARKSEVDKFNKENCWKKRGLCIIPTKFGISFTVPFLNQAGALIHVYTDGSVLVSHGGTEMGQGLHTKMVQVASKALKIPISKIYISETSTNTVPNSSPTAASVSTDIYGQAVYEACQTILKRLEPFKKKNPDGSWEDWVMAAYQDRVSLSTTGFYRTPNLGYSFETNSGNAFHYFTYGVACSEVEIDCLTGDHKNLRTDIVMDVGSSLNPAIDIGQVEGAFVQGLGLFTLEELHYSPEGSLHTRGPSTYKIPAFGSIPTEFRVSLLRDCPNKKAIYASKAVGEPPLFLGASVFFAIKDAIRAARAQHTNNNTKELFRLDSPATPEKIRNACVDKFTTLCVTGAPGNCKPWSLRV

Structure (SMILES) | IC50 (xanthine oxidase) [nM] | inhibition in vivo at 1 mg/kg (serum uric acid) [%]
CCN(CC)c1ccc(-c2nc(C)c(C(=O)O)s2)cc1[N+](=O)[O-] [Example 37] | 1.8 | 74
Cc1nc(-c2ccc(OCC(C)C)c(Cl)c2)sc1C(=O)O [Example 51, 2-(3-Chloro-4-isobutyloxyphenyl)-4-methyl-5-thiazolecarboxylic acid] | 2.1 | 78
Cc1nc(-c2cc(Cl)c(OCCC(C)C)c(Cl)c2)sc1C(=O)O [Example 71, 2-(3,5-Dichloro-4-isopentyloxyphenyl)-4-methyl-5-thiazolecarboxylic acid] | 1.5 | 50
Cc1nc(-c2ccc(N3CCOCC3)c(C#N)c2)sc1C(=O)O [Example 81, 2-(3-Cyano-4-morpholinophenyl)-4-methyl-5-thiazolecarboxylic acid] | 1.7 | 91
Cc1nc(-c2ccc(OC(C)C)c([N+](=O)[O-])c2)sc1C(=O)O [Example 31, 2-(4-isopropoxy-3-nitrophenyl)-4-methyl-5-thiazolecarboxylic acid] | 0.57 | 90
Cc1nc(-c2ccc(Sc3ccc(Cl)cc3)c([N+](=O)[O-])c2)sc1C(=O)O [Example 36, 2-(4-(4-chlrophenyl)thio-3-nitrophenyl)-4-methyl-5thiazolecarboxylic acid] | 0.02 | 14
Cc1nc(-c2ccc(OCC(C)(C)C)c(I)c2)sc1C(=O)O [Example 85, 2-(3-iodo-4-neopentyloxyphenyl)-4-methyl-5-thiazolecarboxylic acid] | 0.12 | 77
Cc1nc(-c2ccc(OCC3CCCCC3)c([N+](=O)[O-])c2)sc1C(=O)O [Example 32, 2-(4-Cyclohexylmethyloxy-3-nitrophenyl)-4-methyl-5-thiazolecarboxylic acid] | 0.18 | 48
CCCCCCOc1ccc(-c2nc(C)c(C(=O)O)s2)cc1[N+](=O)[O-] [Example 41, 2-(4-n-Hexyloxy-3-nitrophenyl)-4-methyl-5-thiazolecarboxylic acid] | 0.32 | 92
CCOCCOc1ccc(-c2nc(C)c(C(=O)O)s2)cc1Cl [Example 55, 2-(3-Chloro-4-(2-ethoxyethyloxy)phenyl)-4-methyl-5-thiazolecarboxylic acid] | 7 | 45
CCOc1ccc(-c2nc(C)c(C(=O)O)s2)cc1[N+](=O)[O-] [Example 33, 2-(4-Ethoxy-3-nitrophenyl)-4-methyl-5-thiazolecarboxylic acid] | 0.36 | 71
CCOCCOc1ccc(-c2nc(C)c(C(=O)O)s2)cc1C#N [Example 80, 2-(3-CYano-4-(2-ethoxyethyloxy)phenyl)-4-methyl-5-thiazolecarboxylic acid] | 1.9 | 87
Cc1nc(-c2ccc(OCC(C)(C)C)c(C(F)(F)F)c2)sc1C(=O)O [Example 84, 4-Methyl-2-(4-neopentyloxy-3-trifluoromethylphenyl)-5-thiazolecarboxylic acid] | 2.9 | 80
Cc1nc(-c2cc(Cl)c(OCC(C)C)c(Cl)c2)sc1C(=O)O [Example 69, 2-(3,5-Dichloro-4-isobutyloxyphenyl)-4-methyl-5-thiazolecarboxylic acid] | 1.5 | 55
Cc1nc(-c2ccc(SC(C)C)c([N+](=O)[O-])c2)sc1C(=O)O [Example 35, 2-(4-isopropylthio-3-nitrophenyl)-4-methyl-5-thiazolecarboxylic acid] | 0.3 | 57
Cc1nc(-c2cc(Cl)c(OC(C)C)c(Cl)c2)sc1C(=O)O [Example 68, 2-(3,5-dichloro-4-isopropoxyphenyl)-4-methyl-5-thiazolecarboxylic acid] | 2.2 | 13
